Each structure is given as a SMILES string.

The test system of one assay is U937 cells. In words: Cellular assay in U937 cells: activity of RIPK1 inhibitors on TNFα/zVAD.fmk-induced cell death (necroptosis), CellTiter 96 AQueous (MTS) readout. Format: cell-based. The settings on record: Homo sapiens, U-937. The essentials:
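Necroptosis was measured by viable-cell MTS reduction (4 h, absorbance 490 nm) after overnight (18–24 h) 37° C culture. Cell suspensions of U937 cells carried TNFα (100 ng/ml) plus zVAD.fmk (50 μM) before compound was added. A 10-point curve (10 μM–0.26 nM or 1 μM–0.07 nM) was run in duplicate, normalised to the control lacking TNFα/zVAD.fmk.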

Assay [1] deals with T1, hRIPK1 (aa 1-375) fusion protein (Homo sapiens, UniProt Q13546).
T1 construct: hRIPK1 (aa 1-375) fusion protein
T1 sequence (Q13546 1-375): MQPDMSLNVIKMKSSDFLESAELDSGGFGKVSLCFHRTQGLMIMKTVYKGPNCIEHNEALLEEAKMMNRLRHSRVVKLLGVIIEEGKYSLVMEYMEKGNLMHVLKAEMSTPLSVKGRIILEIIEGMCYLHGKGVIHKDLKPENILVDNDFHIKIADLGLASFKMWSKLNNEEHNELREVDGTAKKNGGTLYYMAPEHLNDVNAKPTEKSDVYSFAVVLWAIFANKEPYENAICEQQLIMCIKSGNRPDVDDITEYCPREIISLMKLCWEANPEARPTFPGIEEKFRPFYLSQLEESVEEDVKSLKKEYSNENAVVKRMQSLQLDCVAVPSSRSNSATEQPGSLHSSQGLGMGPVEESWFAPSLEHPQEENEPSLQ
In words: ADP-Glo kinase assay: catalytic activity of RIPK1 (autophosphorylation, conversion of ATP to ADP). Format: biochemical. Put shortly: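 hRIPK1 (aa 1-375) fusion protein (3.6 μg/ml final) was preincubated 30 min at rt with compound (33300-1.69 nM, 1% DMSO), then 50 μM ATP was added for 240 min at rt. ADP from autophosphorylation was measured by ADP-Glo luminescence and curves fitted by nonlinear regression.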
On the technique in general: In ADP-Glo the light output rises with the ADP produced.

As for `Cc1cn2ncc(C[C@H]3CC[C@H](C(=O)N4OCC[C@H]4c4ccc(F)cc4)CC3)cc2n1` [compound 324, trans-[4-[(3S)-2-[4-[(2-methylimidazo[1,2-b]pyridazin-7-yl)methyl]cyclohexanecarbonyl]isoxazolidin-3-yl]phenyl]], the values for the IC50 (with U937 cells; in assay [1]) were 35 nM and 34 nM, respectively.

For `COc1cc(C[C@H]2CC[C@H](C(=O)N3OCC[C@H]3c3cncc(F)c3)CC2)cn2nc(C)nc12` [compound 345, trans-[(3S)-3-(5-fluoropyridin-3-yl)-1,2-oxazolidin-2-yl]-[4-[(8-methoxy-2-methyl-[1,2,4]triazolo[1,5-a]pyridin-6-yl)methyl]cyclohexyl]methanone], the IC50 (usually the concentration that gives 50% inhibition) with U937 cells came to 8 nM; in assay [1], 26 nM.

With `Cc1cc(C[C@H]2CC[C@H](C(=O)N3OCC[C@H]3c3cnc(C)c(F)c3)CC2)c(C)cn1` [compound 332, trans-[4-[(2,5-dimethylpyridin-4-yl)methyl]cyclohexyl]-[(3S)-3-(5-fluoro-6-methylpyridin-3-yl)-1,2-oxazolidin-2-yl]methanone], the half-maximal inhibitory concentration (IC50) was determined as 3 nM with U937 cells and 12 nM in assay [1].

Consider `Cc1nccn1-c1cc(F)cc(C[C@H]2CC[C@H](C(=O)N3OCC[C@H]3c3ccc(F)cc3)CC2)c1` [compound 207, trans-[4-[[3-fluoro-5-(2-methylimidazol-1-yl)phenyl]methyl]cyclohexyl]-[(3S)-3-(4-fluorophenyl)isoxazolidin-2-yl]methanone], for which the concentration for half-maximal inhibition (IC50) in the assay with U937 cells turned out to be 53 nM; in assay [1], 23 nM.

Turning to `Cc1cc(C[C@H]2CC[C@H](C(=O)N3OCC[C@H]3c3cc(F)cc(C#N)c3)CC2)cn2c(C)nnc12` [compound 300, trans-3-[(3S)-2-[4-[(3,8-dimethyl-[1,2,4]triazolo[4,3-a]pyridin-6-yl)methyl]cyclohexanecarbonyl]-1,2-oxazolidin-3-yl]-5-fluorobenzonitrile], the figures for the IC50 (in the assay with U937 cells; in assay [1]) were 13 nM and 19 nM, respectively.

In the case of `Cc1nc2c(F)cc(C[C@H]3CC[C@H](C(=O)N4OCC[C@H]4c4cncc(F)c4)CC3)cn2n1` [compound 380], the concentration for half-maximal inhibition (IC50) with U937 cells came to 129 nM; in assay [1] it was 70 nM.

In the case of `Cc1ccc([C@@H]2CCON2C(=O)[C@H]2CC[C@H](Cc3cc(F)c4nc(C)cn4c3)CC2)cn1` [compound 351, trans-[4-[(8-fluoro-2-methylimidazo[1,2-a]pyridin-6-yl)methyl]cyclohexyl]-[(3S)-3-(6-methylpyridin-3-yl)-1,2-oxazolidin-2-yl]methanone], the half-maximal inhibitory concentration (IC50) with U937 cells amounted to 149 nM; in assay [1], 210 nM.

On to `Cn1nccc1C[C@H]1CC[C@H](C(=O)N2OCC[C@H]2c2cnccn2)CC1` [compound 238, trans-[4-[(2-methylpyrazol-3-yl)methyl]cyclohexyl]-[(3S)-3-pyrazin-2-ylisoxazolidin-2-yl]methanone], for which the IC50 in the assay with U937 cells was 257 nM; in assay [1] it was 41 nM.

On to `Cc1cc(C[C@H]2CC[C@H](C(=O)N3OCC[C@H]3c3cnccn3)CC2)cn2c(C)nnc12` [compound 301, trans-[4-[(3,8-dimethyl-[1,2,4]triazolo[4,3-a]pyridin-6-yl)methyl]cyclohexyl]-[(3S)-3-pyrazin-2-yl-1,2-oxazolidin-2-yl]methanone], for which the values for the half-maximal inhibitory concentration (IC50) (with U937 cells; in assay [1]) were 34 nM and 33 nM, respectively.

On to `N#Cc1cc2ncn(C[C@H]3CC[C@H](C(=O)N4OCC[C@H]4c4cc(F)cc(F)c4)CC3)c2cc1F` [compound 10, trans-1-((4-((S)-3-(3,5-difluorophenyl)isoxazolidine-2-carbonyl)cyclohexyl)methyl)-6-fluoro-1H-benzo[d]imidazole-5-carbonitrile], for which the 50% inhibitory concentration (IC50) in the assay on U937 cells worked out at 8 nM; in assay [1], 43 nM.

For `N#Cc1ccc2cn(C[C@H]3CC[C@H](C(=O)N4OCC[C@H]4c4cc(F)cc(F)c4)CC3)nc2c1` [compound 31, trans-2-((4-((S)-3-(3,5-difluorophenyl)isoxazolidine-2-carbonyl)cyclohexyl)methyl)-2H-indazole-6-carbonitrile], the IC50 in the assay with U937 cells worked out at 19 nM; in assay [1], 24 nM.

In the case of `N#Cc1cc(F)c2ccn(C[C@H]3CC[C@H](C(=O)N4OCC[C@H]4c4cc(F)cc(F)c4)CC3)c2c1` [compound 45, trans-1-((4-((S)-3-(3,5-difluorophenyl)isoxazolidine-2-carbonyl)cyclohexyl)methyl)-4-fluoro-1H-indole-6-carbonitrile], the IC50 with U937 cells stood at 6 nM; in assay [1], 18 nM.

Regarding `O=C1NCc2ccc(C[C@H]3CC[C@H](C(=O)N4OCC[C@H]4c4cc(F)cc(F)c4)CC3)cc21` [compound 156, trans-6-[[4-[(3S)-3-(3,5-difluorophenyl)isoxazolidine-2-carbonyl]cyclohexyl]methyl]isoindolin-1-one], the values for the half-maximal inhibitory concentration (IC50) (with U937 cells; in assay [1]) were 6 nM and 16 nM, respectively.

On to `Cc1cc([C@@H]2CCON2C(=O)[C@H]2CC[C@H](Cn3cnc4cc(F)c(C#N)cc43)CC2)co1` [compound 39, trans-5-fluoro-1-((4-((S)-3-(5-methylfuran-3-yl)isoxazolidine-2-carbonyl)cyclohexyl)methyl)-1H-benzo[d]imidazole-6-carbonitrile], for which the IC50 is 15 nM in the assay on U937 cells and 28 nM in assay [1].

Turning to `Cc1nccn1-c1cc(F)cc(C[C@H]2CC[C@H](C(=O)N3OCC[C@H]3c3cncc(C#N)c3)CC2)c1` [compound 210, trans-5-[(3S)-2-[4-[[3-fluoro-5-(2-methylimidazol-1-yl)phenyl]methyl]cyclohexanecarbonyl]isoxazolidin-3-yl]pyridine-3-carbonitrile], the IC50 in the assay with U937 cells is 25 nM; in assay [1] it was 17 nM.

Turning to `Cc1nc2c(Cl)cc(C[C@H]3CC[C@H](C(=O)N4OCC[C@H]4c4cnc(C)c(F)c4)CC3)cn2n1` [compound 381, [4-[(8-chloro-2-methyl-[1,2,4]triazolo[1,5-a]pyridin-6-yl)methyl]cyclohexyl]-[(3S)-3-(5-fluoro-6-methylpyridin-3-yl)-1,2-oxazolidin-2-yl]methanone], the concentration for half-maximal inhibition (IC50) was 8 nM in the assay on U937 cells and 31 nM in assay [1].

As to `Cc1ccc([C@@H]2CCON2C(=O)C23CCC(Cc4ccc(C)c(C(N)=O)c4)(CC2)C3)cn1` [compound 271, 2-methyl-5-[[4-[(3S)-3-(6-methyl-3-pyridyl)isoxazolidine-2-carbonyl]norbornan-1-yl]methyl]benzamide], the IC50 was found to be 605 nM with U937 cells and 97 nM in assay [1].

Regarding `Cc1ncc(C[C@H]2CC[C@H](C(=O)N3OCC[C@H]3c3ccc(F)c(F)c3)CC2)cn1` [compound 309, trans-[(3S)-3-(3,4-difluorophenyl)isoxazolidin-2-yl]-[4-[(2-methylpyrimidin-5-yl)methyl]cyclohexyl]methanone], the IC50 in the assay on U937 cells was 50 nM; in assay [1] it was 15 nM.

For `Cc1cn2ncc(C[C@H]3CC[C@H](C(=O)N4OCC[C@H]4c4csc(C)n4)CC3)cc2n1` [compound 371, trans-[4-(2-Methyl-imidazo[1,2-b]pyridazin-7-ylmethyl)-cyclohexyl]-[(S)-3-(2-methyl-thiazol-4-yl)-isoxazolidin-2-yl]-methanone], the IC50 came to 147 nM in the assay on U937 cells and 65 nM in assay [1].

For the compound `N#Cc1cc2cnn(C[C@H]3CC[C@H](C(=O)N4OCC[C@H]4c4cc(F)cc(F)c4)CC3)c2cc1F` [compound 67, trans-1-((4-((S)-3-(3,5-difluorophenyl)isoxazolidine-2-carbonyl)cyclohexyl)methyl)-6-fluoro-1H-indazole-5-carbonitrile], the IC50 with U937 cells worked out at 2 nM; in assay [1] it was 15 nM.

Turning to `Cc1nc2ccc(C[C@H]3CC[C@H](C(=O)N4OCC[C@H]4c4cc(F)cc(F)c4)CC3)cn2n1` [compound 223, trans-[(3S)-3-(3,5-difluorophenyl)isoxazolidin-2-yl]-[4-[(2-methyl-[1,2,4]triazolo[1,5-a]pyridin-6-yl)methyl]cyclohexyl]methanone], the 50% inhibitory concentration (IC50) came out at 5 nM in the assay on U937 cells and 19 nM in assay [1].

Regarding `NC(=O)c1cc(F)c2ncn(C[C@H]3CC[C@H](C(=O)N4OCC[C@H]4c4cc(F)cc(F)c4)CC3)c2c1` [compound 81, trans-1-((4-((S)-3-(3,5-difluorophenyl)isoxazolidine-2-carbonyl)cyclohexyl)methyl)-4-fluoro-1H-benzo[d]imidazole-6-carboxamide], the 50% inhibitory concentration (IC50) in the assay with U937 cells was determined as 166 nM; in assay [1] it was 33 nM.

As for `Cc1nc([C@@H]2CCON2C(=O)[C@H]2CC[C@H](Cn3ccc4ncc(C#N)cc43)CC2)cs1` [compound 198, trans-1-[[4-[(3S)-3-(2-methylthiazol-4-yl)isoxazolidine-2-carbonyl]cyclohexyl]methyl]pyrrolo[3,2-b]pyridine-6-carbonitrile], the results for the IC50 (in the assay with U937 cells; in assay [1]) were 7 nM and 17 nM, respectively.

In the case of `Cc1cnc([C@@H]2CCON2C(=O)[C@H]2CC[C@H](Cc3cc(C)c4ncnn4c3)CC2)cn1` [compound 409, trans-[(3S)-3-(5-methylpyrazin-2-yl)-1,2-oxazolidin-2-yl]-[4-[(8-methyl-[1,2,4]triazolo[1,5-a]pyridin-6-yl)methyl]cyclohexyl]methanone], the values for the IC50 (with U937 cells; in assay [1]) were 66 nM and 46 nM, respectively.

For the origin of these results see patent US20260158009A1 (GENZYME CORPORATION, priority 2023, published 2026).
